From patent publication US9180159B2, “Use of cell-permeable peptide inhibitors of the JNK signal transduction pathway for the treatment of chronic or non-chronic inflammatory digestive diseases” (Xigen Inflammation Ltd., priority 2008, dated 2015)

Columns and labels:
[1] = system: TC-3 cells; experiment: IL-1 induced pancreatic beta-cell death in TC-3 cells treated with peptides; format: cell-based; conditions: one single addition 1 μM, IL-1 10 ng/ml every two days
Description: Inhibition of IL-1 induced pancreatic beta-cell death by the D-TAT-IB1(s) peptide was analyzed. TC-3 cells were incubated as described above for 30 minutes with one single addition of the indicated peptides (1, μM), then IL-1 (10 ng/ml) was added.
Apoptotic cells were then counted after two days of incubation with IL-1 by use of Propidium Iodide and Hoechst 33342 nuclear staining. A minimum of 1,000 cells were counted for each experiment.
Long term inhibition of IL-1P induced cell-death by the D-TAT-IB1 peptide was also analyzed. TC-3 cells were incubated as above for 30 minutes with one single addition of the indicated peptides (1 μM), then IL-1 (10 ng/ml) was added, followed by addition of the cytokine every two days. Apoptotic cells were then counted after 15 days of incubation with IL-1 by use of propidium iodide and Hoechst 33342 nuclear staining. […] A minimum of 1.000 cells were counted for each experiment.

[2] = target: T1, JNK3 (Homo sapiens, UniProt P53779); experiment: Solid phase kinase assay, JNK3 phosphorylation of Elk1; format: biochemical; conditions: dose response 0-25 μM
T1 construct: host or cells: cell-free: rabbit reticulocyte lysate, in vitro transcription and translation
T1 sequence (P53779 whole entry, species assumed): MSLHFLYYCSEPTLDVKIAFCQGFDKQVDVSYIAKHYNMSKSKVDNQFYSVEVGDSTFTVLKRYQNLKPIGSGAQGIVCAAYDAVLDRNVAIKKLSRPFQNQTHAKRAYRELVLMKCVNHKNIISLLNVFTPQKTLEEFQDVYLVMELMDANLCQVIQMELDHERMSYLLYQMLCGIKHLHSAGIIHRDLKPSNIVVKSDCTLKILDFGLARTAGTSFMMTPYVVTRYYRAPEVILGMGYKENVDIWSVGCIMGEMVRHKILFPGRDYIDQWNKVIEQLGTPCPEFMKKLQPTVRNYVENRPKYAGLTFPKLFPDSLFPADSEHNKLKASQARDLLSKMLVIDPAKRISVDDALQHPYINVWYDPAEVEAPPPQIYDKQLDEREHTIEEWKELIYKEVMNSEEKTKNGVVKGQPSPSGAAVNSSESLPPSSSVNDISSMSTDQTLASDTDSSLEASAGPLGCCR
Description: (§1) The effects of the peptides on JNKs-mediated phosphorylation of their target transcription factors were investigated in vitro. Recombinant and non activated JNK1, JNK2 and JNK3 were produced using a TRANSCRIPTION AND TRANSLATION rabbit reticulocyte lysate kit (Promega) and used in solid phase kinase assays with c-Jun, ATF2 and Elk1, either alone or fused to glutathione-S-transferase (GST), as substrates. Dose response studies were performed wherein L-TAT or L-TAT-IB1(s) peptides (0-25 μM) were mixed with the recombinant JNK1, JNK2, or JNK3 kinases in reaction buffer (20 mM Tris-acetate, 1 mM EGTA, 10 mM p-nitrophenyl-phosphate (pNPP), 5 mM sodium pyrophosphate, 10 mM p-glycerophosphate, 1 mM dithiothreitol) for 20 minutes. The kinase reactions were then initiated by the addition of 10 mM MgCl2 and 5 pCi ^33P-dATP and 1 μg of either GST-Jun (aa 1-89), GST-AFT2 (aa 1-96) or GST-ELK1 (aa 307-428). GST-fusion proteins were purchased from Stratagene (La Jolla, Calif.).
Ten μL of glutathione-agarose beads were also added to the mixture. Reaction products were then separated by SDS-PAGE on a denaturing 10% polyacrylamide gel. Gels were dried and subsequently exposed to X-ray films (Kodak). […] The ability of D-TAT, D-TAT-IB1(s) and L-TAT-IB1(s) peptides (0-250 μM dosage study) to inhibit GST-Jun (aa 1-73) phosphorylation by recombinant JNK1, JNK2, and JNK3 by were analyzed as described above. […]

[3] = system: TC-3 cell cultures; experiment: Cellular import and intracellular persistence of fluorescein-labeled peptides in TC-3 cells; format: cell-based; conditions: 1 μM
Description: The ability of the L- and D-enantiomeric forms of TAT and TAT-IB1(s) peptides (“TAT-IB peptides”) to enter cells was evaluated. L-TAT, D-TAT, L-TAT-IB1(s), and D-TAT-IB1(s) peptides [SEQ ID NOs: 5, 6, 9 and 12, respectively] were labeled by N-terminal addition of a glycine residue conjugated to fluorescein. Labeled peptides (1 μM) were added to TC-3 cell cultures, which were maintained as described in Example 3. At predetermined times cells were washed with PBS and fixed for five minutes in ice-cold methanol-acetone (1:1) before being examined under a fluorescence microscope. Fluorescein-labeled BSA (1 μM, 12 moles/mole BSA) was used as a control.
Little to no signal was present at 48 hours.

[4] = system: recombinant JNK1, JNK2 and JNK3; experiment: Solid phase kinase assay, phosphorylation of c-Jun, ATF2 and Elk1 by recombinant JNKs; format: biochemical
Description: as §1
Ten μL of glutathione-agarose beads were also added to the mixture. Reaction products were then separated by SDS-PAGE on a denaturing 10% polyacrylamide gel. Gels were dried and subsequently exposed to X-ray films (Kodak). […] The ability of D-TAT, D-TAT-IB1(s) and L-TAT-IB1(s) peptides (0-250 μM dosage study) to inhibit GST-Jun (aa 1-73) phosphorylation by recombinant JNK1, JNK2, and JNK3 by were analyzed as described above. Overall, D-TAT-IB1(s) peptide decreased JNK-mediated phosphorylation of c-Jun, but at levels approximately 10-20 fold less efficiently than L-TAT-IB1(s).

[5] = system: JNK mediated activation of c-Jun in HeLa cells; experiment: GAL4-Jun luciferase reporter assay in HeLa cells with MKK4/MKK7 co-transfection; format: cell-based; conditions: 1 μM peptide, 16 hours
Excerpt: To determine whether the cell-permeable peptides as defined herein could block JNK signaling in vivo, we used a heterologous GAL4 system. HeLa cells, cultured as described above, were co-transfected with the 5×GAL-LUC reporter vector together with the GAL-Jun expression construct (Stratagene) comprising the activation domain of c-Jun (amino acids 1-89) linked to the GAL4 DNA-binding domain. Activation of JNK was achieved by the co-transfection of vectors expressing the directly upstream kinases MKK4 and MKK7 (see Whitmarsh et al, Science 285: 1573 (1999)). Briefly, 3×10^5 cells were transfected with the plasmids in 3.5-cm dishes using DOTAP (Boehringer Mannheim) following instructions from the manufacturer. For experiments involving GAL-Jun, 20 ng of the plasmid was transfected with 1 μg of the reporter plasmid pFR-Luc (Stratagene) and 0.5 μg of either MKK4 or MKK7 expressing plasmids. Three hours following transfection, cell media were changed and TAT and TAT-IB1(s) peptides (1 μM) were added. The luciferase activities were measured 16 hours later using the “Dual Reporter System” from Promega after normalization to protein content. […] Because HeLa cells express JNK1 and JNK2 isoforms but not JNK3, we transfected cells with JNK3.

[6] = system: JNKs from UV-light irradiated HeLa cells or IL-1 treated PTC cells; experiment: c-Jun phosphorylation by activated JNKs pulled down with GST-Jun from stressed cells; format: biochemical; conditions: 25 μM peptide
Description: The effects of the L-TAT or L-TAT-IB1(s) peptides as defined herein on JNKs activated by stressful stimuli were evaluated using GST-Jun to pull down JNKs from UV-light irradiated HeLa cells or IL-1 treated PTC cells. PTC cells were cultured as described above. HeLa cells were cultured in DMEM medium supplemented with 10% Fetal Calf Serum, 100 μg/mL Streptomycin, 100 units/ml Penicillin and 2 mM Glutamine. One hour prior to being used for cell extract preparation, PTC cells were activated with IL-1 as described above, whereas HeLa cells were activated by UV-light (20 J/m^2). Cell extracts were prepared from control, UV-light irradiated HeLa cells and IL-1 treated TC-3 cells by scraping the cell cultures in lysis buffer (20 mM Tris-acetate, 1 mM EGTA, 1% Triton X-100, 10 mM p-nitrophenyl-phosphate, 5 mM sodium pyrophosphate, 10 mMP-glycerophosphate, 1 mM dithiothreitol). Debris were removed by centrifugation for five minutes at 15,000 rpm in an SS-34 Beckman rotor. One-hundred μg extracts were incubated for one hour at room temperature with one μg GST-jun (amino acids 1-89) and 10 μL of glutathione-agarose beads (Sigma). Following four washes with the scraping buffer, the beads were resuspended in the same buffer supplemented with L-TAT or L-TAT-IB1(s) peptides (25 μM) for 20 minutes. […]

[7] = system: AP-1 DNA binding complex; experiment: Gel retardation assay with AP-1 probe, HeLa cell nuclear extracts; format: cell-based; conditions: in the presence of TNF-alpha, peptide added 30 minutes before

For “NH2-GRKKRRQRRRPPRPKRPTTLNLFPQVPRSQD-COOH (H-GRKKRRQRRRPPRPKRPTTLNLFPQVPRSQD-OH) [L-TAT-IB1(s)]”, which “long term protection from IL-1 induced cell-death, 15 days” value [1] is on record?
The value was “not”.

What about the “inhibition of JNK3 phosphorylation of Elk1” value [2] of the same substance?
The value was “absence of TAT-IB(s) inhibition”.

And the entry into cells [3]?
The entry into cells was “efficiently and rapidly (less than five minutes) entered cells”.

And the “inhibiting JNK family phosphorylation of their target transcription factors, overall” value [4]?
The value was “superior effects”.

And the “peptide dose at which nearly complete inhibition of c-Jun, ATF2 and Elk1 phosphorylation by JNKs was observed (as low as)” value ([4]; dose response 0-25 μM)?
Its value is 2.5 µM.

And the “activation of c-Jun following MKK4 and MKK7 mediated activation of JNK (luciferase)” value [5]?
Its value is “blocked activation of c-Jun”.

And the “prevention of phosphorylation of c-Jun by activated JNKs” value [6]?
Its value is “efficiently prevented phosphorylation of c-Jun”.

And the “formation of the AP-1 DNA binding complex” value [7]?
The value was “decrease the formation of the AP-1 DNA binding complex”.
